For one series, the system named is Cryptococcus neoformans. Nature of the series: agar dilution in vitro activity test. The series is classed as cell-based. The settings on record: 10 organisms, Kimmig's agar, 25° C.; for MIC: read-out: GMMICS (geometric mean minimum inhibitory concentration). As for the experimental part:
(§1) Organisms listed in Table 1 were tested according to an agar dilution method: Suspensions of each microorganism were prepared to contain […] colony forming units (cfu)/mL. All drugs were dissolved in a few drops of DMSO then diluted with ethanol—water (1/1, v/v) to make a stock solution of 500 μg/mL. The agar dilution method was performed in a medium of Kimmig's agar (K. A., Merck) −0.5% glycerol [R. A. Fromtling, G. K. Abruzzo and A. Ruiz, Mycopathologia, 106 (1989) 163-166]. Plates of Kimmig's agar containing serial dilutions (25 to 0.01 μg/mL) of the drugs were inoculated with 10 μL of the fungal inocula and incubated at 25° C. […] for yeasts and up to 5 days for filamentous fungi. Following incubation, GMMICs (geometric mean minimum inhibitory concentration μg/mL) were determined. In the table POCZ indicates posaconazole, ITRZ indicates itraconazole, EQUZ indicates Equaconazole, and FLUZ indicates fluconazole [Patterson, T. F., S. G. Revankar, W. R. Kirkpatrick, O. Dib, A. W. Fothergill, S. W. Redding, D. A. Sutton, and M. G. Rinaldi, J. Clin. Microbiol. 34 (1996) 1794-1797].
In general terms: In agar dilution the substance is mixed into plates at graded concentrations.

The test system of the next series is Candida Krusei. The series can be described thus: agar dilution in vitro activity test. It counts as cell-based. The settings on record: 22 organisms, Kimmig's agar, 25° C.; for MIC: Pichia kudriavzevii, read-out: GMMICS (geometric mean minimum inhibitory concentration). As for the experimental part:
as §1

The next series has as its system Microsporum canis. The series can be described thus: agar dilution in vitro activity test. It counts as cell-based. As to conditions: 6 organisms, Kimmig's agar, 25° C.; for MIC: read-out: GMMICS (geometric mean minimum inhibitory concentration). As for the experimental part: as §1
A further series relates to Aspergillus Flavus. The series can be described thus: agar dilution in vitro activity test. It counts as cell-based. The settings on record: 9 organisms, Kimmig's agar, 25° C.; for MIC: read-out: GMMICS (geometric mean minimum inhibitory concentration). As for the experimental part:
as §1

Another series deals with Trichophyton rubrum. The series can be described thus: agar dilution in vitro activity test. It counts as cell-based. As to conditions: 17 organisms, Kimmig's agar, 25° C.; for MIC: read-out: GMMICS (geometric mean minimum inhibitory concentration). As for the experimental part: as §1
The test system of series [1] is Ergosterol Biosynthesis, Candida albicans_C286. Nature of the series: inhibition of ergosterol biosynthesis. It counts as cell-based, Candida albicans. The settings on record: Candida albicans_C286, RPMI-1640, 30° C., 48 h. As for the experimental part:
(§2) Compounds of the invention were tested for their ability to inhibit ergosterol biosynthesis. Testing was performed in 96-well round-bottom microtitration plates (Table 2). Cell suspensions were prepared in RPMI-1640 medium and were adjusted to give a final inoculum concentration of 0.5×10^3 to 2.5×10^3 cells/ml. The plates were incubated incubated at 30° C. for 48 h before growth was assessed. The MIC of each compounds was defined as the lowest concentration at which there was 80% inhibition of growth compared with that in a drug-free control [O. N. Breivik and J. L. Owades, Agric. Food Chem., 5 (1957) 360-363; T. F. Patterson, S. G. Revankar, W. R. Kirkpatrick, O. Dib, A. W. Fothergill, S. W. Redding, D. A. Sutton and M. G. Rinaldi, J. Clin. Microbiol., 34 (1996) 1794-1797]. Ergosterol content was calculated as a percentage of the wet weight of the cell [National Committee for Clinical Laboratory Standards. 1997. Reference method for broth dilution antifungal susceptibility testing of yeasts, Approved standard. Document M27-A, National Committee for Clinical Laboratory Standards, Wayne, Pa.].

Series [2] can be described thus: PK study of antifungal nasal spray, plasma level after intranasal dosing. The series is classed as in vivo, Gottingen mini-pigs. As for the experimental part:
Experiments were performed to determine blood levels of Posaconazole formulation after intranasal dosing in Gottingen mini-pigs. A Group of three male and three female mini-pigs (ages from 6 to 9 months) were used for the studies. The vehicle used in the experiments was 5% of PEG-12 GDM in saline solution. The intranasal administration was performed with 35 mL of Luer slip syringes. HPLC-MS analyses were performed on heparinized mini-pig plasma samples obtained typically at 0 hr, 0.08 hr, 1 hr, 2 hr, 4 hr, 12 hr and 24 hr after dosing. The drug was first isolated from plasma with a sample pre-treatment. Acetonitrile were used to remove proteins in samples. An isocratic HPLC-MS method was then used to separate the drug from any potential interference. Drug levels were measured by MS detection with a multiple reaction monitoring (MRM) mode.

The test system of series [3] is Ergosterol Biosynthesis, Aspergillus fumigatus_ND 158. The series can be described thus: inhibition of ergosterol biosynthesis. It counts as cell-based, Aspergillus fumigatus. As to conditions: Aspergillus fumigatus_ND 158, RPMI-1640, 30° C., 48 h. As for the experimental part:
as §2

Here are results for four molecules from patent US20130261131A1, “PHARMACEUTICAL COMPOSITIONS AND MENTODS FOR TREATMENT OF FUNGAL INFECTIONS” (priority 2012, published 2013).

Converted amounts (≈) assume the structure as drawn. “And” between values parts separate entries of the source, which are not always exact repeats. Equal values may be shown once.

As for `OC(Cn1cncn1)(Cn1cncn1)c1ccc(F)cc1F` [FLUZ, fluconazole], the MIC in the series with Cryptococcus neoformans was 45 µg/mL (≈ 147 µM); in the series with Candida Krusei it was 65 µg/mL (≈ 212 µM); with Microsporum canis it was 151 µg/mL (≈ 493 µM); in the series with Aspergillus Flavus, above 235 µg/mL; in the series on Trichophyton rubrum, 105 µg/mL (≈ 343 µM).
Consider `CCC(C)n1ncn(-c2ccc(N3CCN(c4ccc(OCC5COC(Cn6cncn6)(c6ccc(Cl)cc6Cl)O5)cc4)CC3)cc2)c1=O` (stereo not drawn) [ITRZ, itraconazole], for which the MIC with Cryptococcus neoformans came out at 0.49 µg/mL (≈ 0.694 µM); in the series with Candida Krusei, 0.6 µg/mL (≈ 0.85 µM); in the series with Microsporum canis it was 1.2 µg/mL (≈ 1.7 µM); with Aspergillus Flavus it was 0.35 µg/mL (≈ 0.496 µM); in the series with Trichophyton rubrum it was 3.1 µg/mL (≈ 4.39 µM). Further, the IC50 (in general, the concentration needed to halve the response being measured) in series [1] amounted to 39.1 nM.
Regarding `CC[C@@H]([C@H](C)O)n1ncn(-c2ccc(N3CCN(c4ccc(OC[C@@H]5CO[C@@](Cn6cncn6)(c6ccc(F)cc6F)C5)cc4)CC3)cc2)c1=O` [POCZ, posaconazole], the MIC is 0.24 µg/mL (≈ 0.342 µM) with Cryptococcus neoformans; 0.21 µg/mL (≈ 0.3 µM) with Candida Krusei; 0.5 µg/mL (≈ 0.713 µM) in the series with Microsporum canis; 0.12 µg/mL (≈ 0.171 µM) with Aspergillus Flavus; 1.2 µg/mL (≈ 1.71 µM) in the series with Trichophyton rubrum. The “Posaconazole Level in Mini-pig Plasma” value in series [2] (0.08 hour after intranasal dosing, 5% PEG-12 GDM in saline, individual animals, female mini-pigs) is 1.23 ng/mL and 1.39 ng/mL and 1.21 ng/mL; in series [2] (0.08 hour after intranasal dosing, 5% PEG-12 GDM in saline, individual animals, male mini-pigs), 1.74 ng/mL and 1.56 ng/mL; in series [2] (1 hour after intranasal dosing, 5% PEG-12 GDM in saline, individual animals, female mini-pigs) it was 2.06 ng/mL and 1.86 ng/mL and 1.26 ng/mL; in series [2] (1 hour after intranasal dosing, 5% PEG-12 GDM in saline, individual animals, male mini-pigs), 1.24 ng/mL and 1.26 ng/mL; in series [2] (4 hour after intranasal dosing, 5% PEG-12 GDM in saline, individual animals, female mini-pigs) it was 1.28 ng/mL and 1.17 ng/mL and 1.56 ng/mL; in series [2] (4 hour after intranasal dosing, 5% PEG-12 GDM in saline, individual animals, male mini-pigs), 1.42 ng/mL and 1.46 ng/mL. The “Posaconazole Level in Mini-pig Plasma” value was 2.03 ng/mL and 2.44 ng/mL and 2.35 ng/mL in series [2] (12 hour after intranasal dosing, 5% PEG-12 GDM in saline, individual animals, female mini-pigs); 2.41 ng/mL and 1.93 ng/mL in series [2] (12 hour after intranasal dosing, 5% PEG-12 GDM in saline, individual animals, male mini-pigs); 1.17 ng/mL and 2.04 ng/mL and 1.46 ng/mL in series [2] (24 hour after intranasal dosing, 5% PEG-12 GDM in saline, individual animals, female mini-pigs); 1.86 ng/mL and 1.66 ng/mL in series [2] (24 hour after intranasal dosing, 5% PEG-12 GDM in saline, individual animals, male mini-pigs). For the same molecule, the concentration at 0.08 h in series [2] (both sexes, Gottingen, minipig, plasma, other: intranasal, 0.08 hour after intranasal dosing, 5% PEG-12 GDM in saline, individual animals, read-out: Posaconazole Level in Mini-pig Plasma) worked out at 1.35 ng/mL. In series [2] (both sexes, Gottingen, minipig, plasma, other: intranasal, 1 hour after intranasal dosing, 5% PEG-12 GDM in saline, individual animals, read-out: Posaconazole Level in Mini-pig Plasma), the concentration at 1 h amounted to 1.62 ng/mL. Also, the concentration at 4 h in series [2] (both sexes, Gottingen, minipig, plasma, other: intranasal, 4 hour after intranasal dosing, 5% PEG-12 GDM in saline, individual animals, read-out: Posaconazole Level in Mini-pig Plasma) was determined as 1.26 ng/mL. In addition, the concentration at 12 h in series [2] (both sexes, Gottingen, minipig, plasma, other: intranasal, 12 hour after intranasal dosing, 5% PEG-12 GDM in saline, individual animals, read-out: Posaconazole Level in Mini-pig Plasma) was 1.96 ng/mL. Moreover, the concentration at 24 h in series [2] (both sexes, Gottingen, minipig, plasma, other: intranasal, 24 hour after intranasal dosing, 5% PEG-12 GDM in saline, individual animals, read-out: Posaconazole Level in Mini-pig Plasma) was determined as 1.86 ng/mL. In addition, in series [2] (intranasal dosing with formulated Posaconazole), the “amount detected in mini-pig plasma after dosing (in words)” value is reported as “Only trace amounts”.
Turning to Equaconazole [EQUZ], the “GMMICS (geometric mean minimum inhibitory concentration)” value in the series with Cryptococcus neoformans came to 0.25 µg/mL; in the series on Candida Krusei, 0.15 µg/mL; in the series on Microsporum canis, 0.35 µg/mL; in the series on Aspergillus Flavus, 0.09 µg/mL; in the series with Trichophyton rubrum, 0.10 µg/mL. Besides, the figures for the IC50 in series [1] and in series [3] were 31.1 nM and 9.8 nM, respectively.
